Results from a melting point compilation (Tetko et al.; mined from patent text by program, amines drawn as free bases though some values may be those of a salt).

melting point [°C]	Structure (SMILES)
76 to 78	CCOC(=O)C=C(C)c1ccc(-c2ccccc2)cc1
227 to 230	N#Cc1[nH]c2ccc(Br)cc2c1-c1ccccc1
98.5 to 98.9	COC(=O)/C=C/Oc1ccc(Oc2ccc(F)cc2F)c(NS(C)(=O)=O)c1
203	O=C(O)CCCc1cc2cc(Cl)ccc2n1S(=O)(=O)c1ccc2c(c1)CCN2
158 to 160	Cc1ccc(C(=O)C=Cc2ccc[nH]2)cc1
166	Nc1ccc2ccc(Oc3ccccc3Cl)nc2n1
111 to 115	[N-]=[N+]=C(c1ccccc1)c1ccc(COCCNC(=O)Nc2ccccc2)cc1
140 to 142	COc1ccc(-c2ccc(CC(=O)O)cc2F)cc1
100 to 103	O=C(O)C(CC1CCCCC1)c1ccc(OCc2ccccn2)cc1 (configuration not stated)
87.8	CCOC(=O)/C=C(/c1ccccc1)c1ccc([N+](=O)[O-])c(COS(C)(=O)=O)c1
183	COc1ccccc1CNc1ccc2cc(Nc3nnc(C)o3)ccc2n1
249 to 250	Clc1cccc2c1C1=NCCN1C1C(c3ccccc3)CCN21 (configuration not stated)
90 to 91	O=C(O)CCCC=Cc1nn(-c2ccc(F)cc2)c2c1CCC2
161 to 163	CCc1cc2c(s1)SCc1cc(=O)n(-c3ccc(Cl)cc3)nc1-2
99 to 101	Oc1ccc(-c2ccc(C=C(Br)Br)s2)cc1
> 300	O=C(O)c1c2c(nc3ccc(Br)cc13)-c1ccc(-c3ccccc3F)cc1CCC2
182 to 184	CC(C)(C)c1cc(NC(=O)Nc2ccc(Oc3ccccc3)cc2)on1

The next lines start with the molecule.

Structure (SMILES)	melting point [°C]
CC(CCl)CCCC(C)C1CC=C2C3=C(CCC21C)C1(C)CCC(O)C(C)(C)C1CC3 (configuration not stated)	145 to 146
O=C(Nc1ccccn1)c1cnc2c(c1O)CCCC2	> 300
O=C(O)c1ccccc1OCCN1CCC(c2c[nH]c3ccccc23)CC1	230
O=C1CCCCCCCCC=CCCCCCCCCC1O (configuration not stated)	66 to 67
CCCCCCCCn1nnnc1I	40
COc1ccc(OCC(F)(F)F)cc1N1CCN(CCCNC(=O)c2c(-c3ccccc3)noc2C)CC1	125
Cc1cc(NCCO)c2[nH]nc(Br)c2n1	210 to 214
CCCNC(=S)NS(=O)(=O)c1cc2c(cc1OC)OC(C)(C)C(NC(=O)c1cc(Cl)ccc1OC)C2 (configuration not stated)	210 to 211
C#Cc1ncn2c1CN(C)C(=O)c1ccccc1-2	191 to 193
O=c1n(CCN2CCN(c3ccc4cc[nH]c4c3)CC2)c2ccccc2n1C1=CCCCC1	171 to 173
CN1CCc2cc(-c3ccc4c(c3)CCN(CCN3CCCC3)C4=O)ccc2C1=O	225 to 226
CCOC(=O)c1ccc(O)c(C#N)c1	192 to 193
CSc1cnc2cc(Cl)sc2c1O	235 to 237
COCCc1nc2c(N)nc3c(c2n1CCOCCNC(=O)c1ccccc1)CCCC3	141 to 143
COc1cc(N)c(Cl)cc1C(=O)OCC12CCCN(CC1)C2 (configuration not stated)	131 to 133
CCC(C)(C)NCc1nc2sc3c(c2c(-c2ccc(OC)c(OC)c2)c1Cl)CCN(Cc1ccccc1)C3	128 to 129
COC(=O)c1c(Cl)cccc1S(N)(=O)=O	144 to 149
C=CC(=N)NS(N)(=O)=O	72 to 75
CCc1nc2c(o1)C(=O)C=CC2=O	99
COc1cc(Nc2c(C#N)cnc3ccc(-c4csc(CN5CCOCC5)c4)cc23)c(Cl)cc1Cl	145 to 147
Cc1nc(N2CCC(NCCC(F)(F)F)C2=O)sc1C(=O)NCc1ccc(F)cc1 (configuration not stated)	142 to 143
CN(C)C1(Cc2ccccc2)CC=C(c2[nH]c3ccccc3c2CCc2ccncc2)CC1 (configuration not stated)	154 to 157
O=C(O)Cc1c(C(=O)c2cc3ccccc3cn2)[nH]c2cc(Cl)ccc12	236 to 237
Cc1cc(F)ccc1C=CC#N	86 to 87
COc1cccc(CC(=O)O)c1OCCCc1cn(-c2ccc(C#N)nn2)nc1C(C)C	132 to 133
